The target in this test is GCN2 (Homo sapiens, UniProt Q9P2K8). As to the kind of experiment: GCN2 enzymatic endpoint assay: phosphorylation of GFP-eIF2α measured by TR-FRET (Lanthascreen). In kind it is biochemical. The following applies: tested as described in Example 77; compound and/or hydrochloride, dihydrochloride or trifluoroacetic acid salt; read-out: IC 50 Activity. The essentials:
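Endpoint GCN2 reaction with low ATP (2 μM) and 80 nM GFP-eIF2α, room temperature, 90 minutes. Detection mix with EDTA and Tb-labelled antibody; 520 nm/495 nm emission ratio reported.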
(In general: Time-resolved FRET reads energy transfer from a long-lived donor to a nearby acceptor.)

Chain of GCN2 (Q9P2K8 whole entry): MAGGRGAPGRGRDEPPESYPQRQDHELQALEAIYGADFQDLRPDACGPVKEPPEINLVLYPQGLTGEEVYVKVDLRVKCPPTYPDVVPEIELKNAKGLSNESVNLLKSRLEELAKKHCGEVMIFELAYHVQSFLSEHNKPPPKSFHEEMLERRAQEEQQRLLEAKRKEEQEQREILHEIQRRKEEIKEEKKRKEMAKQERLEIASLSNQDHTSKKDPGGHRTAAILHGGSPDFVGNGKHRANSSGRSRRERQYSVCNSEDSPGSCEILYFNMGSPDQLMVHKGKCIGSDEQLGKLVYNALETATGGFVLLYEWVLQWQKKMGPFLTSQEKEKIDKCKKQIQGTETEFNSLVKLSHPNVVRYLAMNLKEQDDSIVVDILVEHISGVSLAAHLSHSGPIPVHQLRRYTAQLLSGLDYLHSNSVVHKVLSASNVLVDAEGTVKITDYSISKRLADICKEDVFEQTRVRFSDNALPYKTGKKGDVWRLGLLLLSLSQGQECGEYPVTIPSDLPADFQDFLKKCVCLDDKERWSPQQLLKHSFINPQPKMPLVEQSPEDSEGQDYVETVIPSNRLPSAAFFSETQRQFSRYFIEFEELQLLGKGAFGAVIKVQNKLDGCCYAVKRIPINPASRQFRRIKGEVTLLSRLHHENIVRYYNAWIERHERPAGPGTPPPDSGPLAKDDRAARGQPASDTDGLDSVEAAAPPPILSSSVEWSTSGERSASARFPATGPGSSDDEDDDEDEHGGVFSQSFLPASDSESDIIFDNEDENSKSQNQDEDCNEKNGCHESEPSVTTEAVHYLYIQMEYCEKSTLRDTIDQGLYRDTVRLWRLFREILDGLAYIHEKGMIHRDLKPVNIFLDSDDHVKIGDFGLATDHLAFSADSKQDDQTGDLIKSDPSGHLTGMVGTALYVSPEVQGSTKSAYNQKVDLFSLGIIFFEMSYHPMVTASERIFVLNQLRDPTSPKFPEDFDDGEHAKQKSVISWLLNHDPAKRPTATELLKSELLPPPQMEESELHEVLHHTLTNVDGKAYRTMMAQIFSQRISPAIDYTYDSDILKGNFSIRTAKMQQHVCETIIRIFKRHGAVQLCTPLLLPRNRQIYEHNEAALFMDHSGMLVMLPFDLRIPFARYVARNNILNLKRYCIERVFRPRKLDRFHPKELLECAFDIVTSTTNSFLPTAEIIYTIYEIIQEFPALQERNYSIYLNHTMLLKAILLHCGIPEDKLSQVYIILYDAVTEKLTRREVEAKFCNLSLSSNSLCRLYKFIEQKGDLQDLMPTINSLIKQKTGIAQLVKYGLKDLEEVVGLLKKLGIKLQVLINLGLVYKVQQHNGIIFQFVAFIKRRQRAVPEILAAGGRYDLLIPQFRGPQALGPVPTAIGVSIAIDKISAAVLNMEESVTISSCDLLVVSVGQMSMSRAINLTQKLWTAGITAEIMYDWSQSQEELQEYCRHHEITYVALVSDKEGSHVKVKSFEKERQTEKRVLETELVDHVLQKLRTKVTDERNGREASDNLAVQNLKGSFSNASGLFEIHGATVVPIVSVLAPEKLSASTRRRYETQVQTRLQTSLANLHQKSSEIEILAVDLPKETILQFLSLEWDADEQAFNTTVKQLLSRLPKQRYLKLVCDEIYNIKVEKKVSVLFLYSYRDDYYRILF

As to `CC[C@H](N)c1cc(Cl)cc(-n2nc(Br)c3cnc(N[C@@H]4CC[C@@](C)(C(=O)NC)C4)nc32)c1`, the IC50 was in the range of 0.025 to 0.2 µM.
Consider `CNC(=O)[C@]1(C)CC[C@@H](Nc2ncc3c(Br)nn(-c4ccc(-n5nccc5C)cc4)c3n2)C1` [(1R,3R)-3-[[3-bromo-1-[4-(5-methyl-pyrazol-1-yl)phenyl]pyrazolo[3,4-d]pyrimidin-6-yl]amino]-N,1-dimethyl-cyclopentanecarboxamide], for which the IC50 fell in the range of 0.025 to 0.2 µM.
Next, `N#CC1CN(C(=O)[C@@H]2CC[C@@H](Nc3ncc4c(Br)cn(-c5cc(F)c6ncccc6c5)c4n3)C2)C1` [1-((1R,3R)-3-((5-bromo-7-(8-fluoroquinolin-6-yl)-7H-pyrrolo[2,3-d]pyrimidin-2-yl)amino)cyclopentane-1-carbonyl)azetidine-3-carbonitrile]: under 0.025 µM; `CNC(=O)[C@]1(C)CC[C@@H](Nc2ncc3c(Br)nn(-c4ccc5c(c4)OCC(=O)N5CC#N)c3n2)C1` [(1R,3R)-3-[[3-bromo-1-[4-(cyanomethyl)-3-oxo-1,4-benzoxazin-7-yl]pyrazolo[3,4-d]pyrimidin-6-yl]amino]-N,1-dimethyl-cyclopentanecarboxamide]: 0.025 to 0.2 µM.
The value for `COCCNC(=O)[C@@H]1CC[C@@H](Nc2ncc3c(Br)nn(-c4cc(F)c5ncccc5c4)c3n2)C1` [(1R,3R)-3-((3-bromo-1-(8-fluoroquinolin-6-yl)-1H-pyrazolo[3,4-d]pyrimidin-6-yl)amino)-N-(2-methoxyethyl)cyclopentane-1-carboxamide] was 0.025 to 0.2 µM; that for `Cc1nnc(-c2ccc(-n3nc(Br)c4cnc(NC5CCN(CC(F)F)C5)nc43)cc2)s1` (stereo not drawn) [3-bromo-N-[1-(2,2-difluoroethyl)pyrrolidin-3-yl]-1-[4-(5-methyl-1,3,4-thiadiazol-2-yl)phenyl] pyrazolo[3,4-d]pyrimidin-6-amine] was 0.025 to 0.2 µM.
Take `CNC(=O)[C@]1(C)CC[C@@H](Nc2ncc3c(Br)nn(-c4ccc(-c5ncco5)c(CCN)c4)c3n2)C1` [(1R,3R)-3-[[1-[3-(2-aminoethyl)-4-oxazol-2-yl-phenyl]-3-bromo-pyrazolo[3,4-d]pyrimidin-6-yl]amino]-N,1-dimethyl-cyclopentanecarboxamide]: the IC50 lay in the range of 0.025 to 0.2 µM.
Next, `CNC(=O)[C@]1(C)CC[C@@H](Nc2ncc3c(Br)nn(-c4cc(CS(C)(=O)=O)c5ncccc5c4)c3n2)C1` [(1R,3R)-3-[[3-bromo-1-[8-(methylsulfonyl-methyl)-6-quinolyl]pyrazolo[3,4-d]pyrimidin-6-yl]amino]-N,1-dimethyl-cyclopentanecarboxamide]: 0.025 to 0.2 µM; `CNC(=O)[C@]1(C)CC[C@@H](Nc2ncc3c(Br)nn(-c4ccc(-c5nnc(COC)s5)cc4)c3n2)C1` [(1R,3R)-3-[[3-bromo-1-[4-[5-(methoxy-methyl)-1,3,4-thiadiazol-2-yl]phenyl]pyrazolo[3,4-d]pyrimidin-6-yl]amino]-N,1-dimethyl-cyclopentanecarboxamide]: 0.025 to 0.2 µM; `CNC(=O)[C@]1(C)CC[C@@H](Nc2ncc3c(Br)nn(-c4ccc(-c5cncnc5)cc4)c3n2)C1` [(1R,3R)-3-[[3-bromo-1-(4-pyrimidin-5-ylphenyl)pyrazolo[3,4-d]pyrimidin-6-yl]amino]-N,1-dimethyl-cyclopentane-carboxamide]: 0.025 to 0.2 µM.
On to `CNC(=O)[C@]1(C)CC[C@@H](Nc2ncc3c(Br)nn(-c4ccc5c(c4)OCC(=O)N5C(C)C)c3n2)C1` [(1R,3R)-3-[[3-bromo-1-(4-isopropyl-3-oxo-1,4-benzoxazin-7-yl)pyrazolo[3,4-d]pyrimidin-6-yl]amino]-N,1-dimethyl-cyclopentanecarboxamide], for which the IC50 fell in the range of 0.025 to 0.2 µM.
The value for `CNC(=O)[C@]1(C)CC[C@@H](Nc2ncc3c(Br)nn(-c4cc(CN[S+](C)[O-])c5nccnc5c4)c3n2)C1` (stereo partly drawn) [(1R,3R)-3-[[3-bromo-1-[8-(methane-sulfinamidomethyl)quinoxalin-6-yl]pyrazolo[3,4-d]pyrimidin-6-yl]amino]-N,1-dimethyl-cyclopentane-carboxamide] was 0.025 to 0.2 µM.

Values taken from US11046699B2, “Pyrazolo-pyrimidin-amino-cycloalkyl compounds and their therapeutic uses” (RAPT THERAPEUTICS, INC., priority 2018, dated 2021).
